Data set [1] addresses T1, G6PD::6PGL fused enzyme (Giardia intestinalis, UniProt A8BWM5). Put plainly: Screening of in-house library on G6PD::6PGL activity at 400 µM. Type of data set: biochemical, Giardia lamblia. The method, then:
The effects of 120 organic molecules from the in-house chemical library of compounds, which were synthesized in the Medicinal Chemistry Laboratory at the Pharmacy Faculty of the Autonomous University Morelos State, include mainly aromatic and non-aromatic heterocyclic compounds with heteroatoms such as nitrogen, oxygen, and sulfur, which were evaluated as possible specific inhibitors of G6PD::6PGL. The assay was carried out following what was reported by Martinez-Rosas et al.; each compound was dissolved in dimethyl sulfoxide (DMSO), and the recombinant enzyme G6PD::6PGL (0.2 mg/mL) was incubated with the compounds at a concentration of 400 µM, for 2 h, at 37 °C. The residual enzymatic activity of the G6PD domain was measured following the spectrophotometric NADP^+ reduction at 340 nm with the standard reaction mixture. Activity data were plotted as percent residual activity, where 100% activity was taken from enzyme samples incubated without a compound.

Data set [2] addresses T1, G6PD::6PGL fused enzyme. Description: Enzymatic inhibition assay (concentration-dependent inactivation) of G6PD::6PGL. Format: biochemical, Giardia lamblia. As to conditions: for inhibition at 200 µM: read-out: Loss of initial G6PD::6PGL activity. The method, then: G6PD::6PGL protein was adjusted at 0.2 mg/mL and incubated in the presence of different concentrations of compounds (0–800 μM). After incubation, aliquots were withdrawn from the samples, and the residual activity was determined. The G6PD::6PGL without compounds was used to determine 100% activity. The assays were carried out in triplicate, and the data represent the mean ± standard error.
The IC50 values of the four selected compounds were determined. […] The assay was performed using a protein concentration of 0.2 mg/mL in buffer T (100 mM Tris–HCl, 30 mM MgCl2, pH 8) with different concentrations of the compounds (0 to 800 µM). The protein was incubated at 37 °C for 2 h after the residual activity of the G6PD domain was measured. The data were plotted as percent activity, where 100% was taken as the enzyme’s activity without compounds. All values were adjusted to the Boltzmann sigmoid equation in the Origin 8.0® program (Northampton, MA, USA) to obtain the IC50 value expressed in µM units.

For data set [3], the target named is T2, HsG6PD (Homo sapiens, UniProt P11413). Put plainly: Effect of compounds on HsG6PD activity at 400 µM. Type of data set: biochemical. An excerpt:
Based on the above, we decided to evaluate the effect in vitro of the compounds in the inactivation of the G6PD::6PGL enzyme.

The test system of data set [4] is Caco-2 cells. Description: in vitro. As to conditions: 250 µM compound. The method, then:
(§1) An XTT cell proliferation assay determined the viability.
(§2) The cytotoxicity assay was performed using human cell lines Caco-2 (ATCC HTB-37) and HT29 (ATCC HHTB-38) with a Cell Proliferation Kit II (XTT; St Louis, MO, USA). A cell suspension of 2 × 10^5 cells/mL was prepared in Dulbecco’s modified Eagle’s (DMEM) medium, supplemented with 10% inactivated fetal bovine serum and 1% penicillin/streptomycin (5000 U/mL), and 100 µL portions of the suspension were added to the wells of 96-well plates. The plates were incubated for 24 h at 37 °C in an atmosphere of 5% CO2. The medium in each well was replaced with 100 µL medium with compounds at 500, 250, 150, 75, 32, and 16 µM. After 48 h of incubation at 37 °C in an atmosphere of 5% CO2, the viability of cells was determined. The medium in each well was gently replaced with 100 µL of fresh medium, 50 µL of XTT labeling mixture was added per well, the mixture was incubated for four h at 37 °C and 5% CO2, and the absorbance at 495 nm was measured. Each compound was assayed in triplicate via three independent experiments. The CCI50 values were determined using the nonlinear regression function of GraphPad Prism version 6.04 for Windows.

Data set [5] deals with T1, G6PD::6PGL fused enzyme. Put plainly: Second-order inactivation constant (k2) of G6PD::6PGL. As to conditions: for kinact/KI: read-out: Second-order inactivation constant (k2). Type of data set: biochemical, Giardia lamblia. The method, then:
At the indicated times, aliquots were withdrawn from the samples and assayed for residual activity. Initial velocity was fitted to determine each compound’s pseudo-first-order inactivation constants (k1). […] All experiments were performed in triplicate.
Inactivation assays were performed to determine the rate of each to form the enzyme–inhibitor complex. First, the pseudo-first-order constants (k1) were obtained by incubating 0.2 mg/mL of pure G6PD::6PGL enzyme and different concentrations of compound (0 to 500 µM) at 37 °C in time intervals (0–120 min). After the incubation period, enzyme activity was measured spectrophotometrically following the reduction of NADP^+ at 340 nm for each experimental condition. The results were expressed in terms of the activity percentage against each compound’s concentration. The residual activity data were fitted to a mono-exponential decay model, using the equation AR=A0 e^−kt , where AR is the residual activity at different times, A0 is the activity at the initial time, and k is the pseudo-first-order inactivation constant (min^−1). Subsequently, the constants obtained were plotted against the corresponding inhibitor concentration. A linear regression model was applied to obtain the second-order inactivation constant k2 (M^−1 s^−1).

The next data set deals with G. lamblia trophozoites. Put plainly: Antigiardial activity, trophozoite viability (trypan blue). Type of data set: cell-based. As to conditions: Giardia duodenalis, 48 h, read-out: IC50 G. lamblia (trophozoite viability). Here is the method: The trophozoites were incubated in the presence of compounds for 48 h at 37 °C with increasing concentrations of each of the compounds, and later the viability of the trophozoites was determined. The values represent mean ± standard deviation from three independent experiments, and standard errors of the mean were lower than 5%.
The Giardia lamblia WB strain (ATCC number 30957) was grown and cultivated in a modified TYI-S-33 medium supplemented with 10% fetal bovine serum at 37 °C. G. lamblia was harvested from a confluent culture by chilling the tubes on ice for 5–10 min to detach cells, followed by centrifugation at 800× g for 5 min. For the antigiardial activity assay, 5 × 10^4 trophozoites of G. lamblia were incubated with different concentrations of the compounds (31, 62, 125, 250, and 500 µM) in a final volume of 1.5 mL and then incubated for 48 h at 37 °C. After incubation, 75 µL of the treated trophozoites were subcultured individually for another 48 h in a fresh medium without compounds. At the end of this period, the viable trophozoites were counted using trypan blue. Each compound was assayed in three independent experiments. Appropriate controls were tested in each assay, including a sample without compounds and another with only 2% DMSO.

Data set [6] deals with HT29 cells. Description: In vitro cytotoxicity, XTT assay, HT29. Particulars: for Decrease of HT29 cell viability: 250 µM compound; for Selectivity index (SI), CC50 HT29 / IC50 G. lamblia: ratio of CC50/IC50 between mammalian cells and trophozoites. Here is the method: as §1, §2
Data set [7] addresses T2, HsG6PD. On the set-up: method as in earlier work. As to conditions: ref 24 (Ramirez-Nava et al.); cited from earlier work.
A further data set can be described thus: in vitro. As to conditions: human, Caco-2. The method, then:
as §1, §2

The nature of data set [8]: In vitro cytotoxicity, XTT assay, HT29. As to conditions: human. The method, then:
as §1, §2
Background: Formazan colour is commonly taken as a measure of viable cells.

For data set [9], the system named is Caco-2 cells. As to conditions: cited from earlier work.
Data set [10] concerns HT29 cells. Particulars: nitazoxanide; cited from earlier work.
Setting [11] is: read-out: G6PD::6PGL Inhibition (%) at (400 μM).
The mark [12] stands for this setting: 400 μM compound, read-out: HsG6PD Inhibition (%) at (400 μM).
Setting [13] is: read-out: G6PD::6PGL Inhibition (%) at (400 μM), 400 μM compound, 0.2 mg/mL enzyme, 2 h, 37 °C.
[14] abbreviates: read-out: G6PD::6PGL IC50, 0.2 mg/mL enzyme, 0–800 μM compound, 2 h, 37 °C.

Results on seven compounds are retold here after publication PMC9697976, “Giardia lamblia G6PD::6PGL Fused Protein Inhibitors Decrease Trophozoite Viability: A New Alternative against Giardiasis” (International Journal of Molecular Sciences, 2022).

Each structure is given as a SMILES string. Where two headings read alike, the source gives them in different places. Some results are limits rather than exact numbers.

One may read the IC50 as the concentration that inhibits the measured activity by half.

T2 sequence (P11413 whole entry): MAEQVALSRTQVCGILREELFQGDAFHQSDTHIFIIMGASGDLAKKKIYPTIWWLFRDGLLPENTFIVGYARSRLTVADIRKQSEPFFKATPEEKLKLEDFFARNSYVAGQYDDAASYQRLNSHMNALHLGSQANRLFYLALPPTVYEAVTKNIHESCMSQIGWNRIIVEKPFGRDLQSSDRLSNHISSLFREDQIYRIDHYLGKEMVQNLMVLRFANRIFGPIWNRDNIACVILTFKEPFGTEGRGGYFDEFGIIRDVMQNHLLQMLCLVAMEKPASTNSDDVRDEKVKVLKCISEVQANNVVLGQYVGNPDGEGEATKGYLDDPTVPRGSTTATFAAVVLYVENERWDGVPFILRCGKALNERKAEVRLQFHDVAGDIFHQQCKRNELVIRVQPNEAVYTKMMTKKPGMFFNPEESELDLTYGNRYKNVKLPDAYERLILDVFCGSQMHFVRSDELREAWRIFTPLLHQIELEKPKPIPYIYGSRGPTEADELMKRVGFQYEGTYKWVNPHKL
T1 sequence (A8BWM5 entry or part of it): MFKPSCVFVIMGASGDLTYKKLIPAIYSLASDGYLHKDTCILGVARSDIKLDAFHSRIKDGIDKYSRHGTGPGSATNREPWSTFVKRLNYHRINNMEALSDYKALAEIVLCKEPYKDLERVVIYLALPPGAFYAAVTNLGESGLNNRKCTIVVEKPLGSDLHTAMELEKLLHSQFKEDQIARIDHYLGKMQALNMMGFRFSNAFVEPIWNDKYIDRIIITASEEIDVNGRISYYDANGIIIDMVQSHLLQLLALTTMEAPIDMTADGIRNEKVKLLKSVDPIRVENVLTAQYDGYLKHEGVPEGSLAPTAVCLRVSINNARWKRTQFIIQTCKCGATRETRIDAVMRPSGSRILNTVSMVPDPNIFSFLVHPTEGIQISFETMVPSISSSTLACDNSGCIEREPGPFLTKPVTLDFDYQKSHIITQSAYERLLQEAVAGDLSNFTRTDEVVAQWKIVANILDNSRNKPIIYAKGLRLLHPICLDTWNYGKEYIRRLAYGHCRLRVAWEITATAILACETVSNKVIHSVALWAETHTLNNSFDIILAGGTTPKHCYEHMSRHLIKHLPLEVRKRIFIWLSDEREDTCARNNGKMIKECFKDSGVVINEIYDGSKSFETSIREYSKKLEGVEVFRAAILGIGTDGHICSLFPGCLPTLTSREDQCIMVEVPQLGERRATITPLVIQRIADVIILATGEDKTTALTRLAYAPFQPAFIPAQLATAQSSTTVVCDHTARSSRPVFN

For `O=C1CC(=O)NC(=O)N1` [Barbituric acid, reference compound], the inhibition at 400 µM on G6PD::6PGL fused enzyme [1] (setting [11]) was determined as 0%. The compound further displayed an IC50 at G6PD::6PGL fused enzyme [2] of more than 500 µM.
For `O=C1NC(=O)C(=Cc2ccc(OCc3ccccc3)cc2)C(=O)N1` [CMC-1], the inhibition at 400 µM at HsG6PD [3] (read-out: HsG6PD Inhibition (%) at (400 μM), 400 μM compound) is approximately 34%; at G6PD::6PGL fused enzyme [1] (setting [11]), 98%. Moreover, in the data set with Caco-2 cells [4], the “Decrease of Caco-2 cell viability” value is on record as “approximately 20%”. Besides, at G6PD::6PGL fused enzyme [5] (0.2 mg/mL enzyme, 37 °C, 0–120 min), the “Second-order inactivation constant (k2)” value came out at 0.97 M⁻¹ s⁻¹. The IC50 came out at 70 µM on G6PD::6PGL fused enzyme [2] and 24.1 µM with G. lamblia trophozoites. Moreover, the inhibition at 200 µM at G6PD::6PGL fused enzyme [2] (2 h) was determined as 100%. In addition, the “Decrease of HT29 cell viability” value in the data set with HT29 cells [6] was determined as 25%.
In the case of `CCCCOc1ccc(NC(=O)Nc2nc([N+](=O)[O-])cs2)cc1` [CNZ-7], the IC50 is 274 µM on HsG6PD [7]; 150 µM on G6PD::6PGL fused enzyme [2] (setting [14]); 8.7 µM with G. lamblia trophozoites (37 °C, WB strain). Moreover, the inhibition at 400 µM worked out at 68% at HsG6PD [3] (setting [12]) and 85% at G6PD::6PGL fused enzyme [1] (setting [13]). Also, the CC50 at 48 h in the data set “in vitro” turned out to be 640 µM; in [8] (HT29 cells), 529 µM. The selectivity ratio at 48 h in the data set “in vitro” was found to be 74. In the data set on Caco-2 cells [4], the “Decrease of Caco-2 cell viability” value is “approximately 20%”. Besides, the kinact/KI at G6PD::6PGL fused enzyme [5] came to 0.97 M⁻¹ s⁻¹. For the same compound, at G6PD::6PGL fused enzyme [2] (2 h), the inhibition at 200 µM is 60%. Moreover, the “Decrease of HT29 cell viability” value in the data set on HT29 cells [6] worked out at 25%. In addition, in the data set on HT29 cells [6], the “Selectivity index (SI), CC50 HT29 / IC50 G. lamblia” value came out at 60.
For the compound `O=C(Nc1ccc([N+](=O)[O-])cc1)Nc1nc([N+](=O)[O-])cs1` [CNZ-8], the inhibition at 400 µM at HsG6PD [3] (setting [12]) was 43%; on G6PD::6PGL fused enzyme [1] (setting [13]), 75%. In addition, the CC50 at 48 h stood at 633 µM in the data set “in vitro” and 622 µM in [8]. The selectivity ratio at 48 h in “in vitro” worked out at 41. The “Decrease of Caco-2 cell viability” value in the data set on Caco-2 cells [4] is “approximately 20%”. Moreover, the kinact/KI on G6PD::6PGL fused enzyme [5] turned out to be 0.6 M⁻¹ s⁻¹. The inhibition at 200 µM on G6PD::6PGL fused enzyme [2] (2 h) stood at 80%. Also, the IC50 is 80 µM on G6PD::6PGL fused enzyme [2] (setting [14]) and 15.2 µM in the data set on G. lamblia trophozoites (37 °C, WB strain). Besides, the “Decrease of HT29 cell viability” value with HT29 cells [6] stood at 25%. In addition, in the data set on HT29 cells [6], the “Selectivity index (SI), CC50 HT29 / IC50 G. lamblia” value was 41.
Take `CCCCCC(=O)Nc1nc([N+](=O)[O-])cs1` [FLP-2]: the results for the inhibition at 400 µM on HsG6PD [3] (setting [12]) and on G6PD::6PGL fused enzyme [1] (setting [13]) were approximately 20% and 89%, respectively. The CC50 at 48 h in “in vitro” was 3180 µM; in data set [8] (HT29 cells) it was 1910 µM. In addition, the selectivity ratio at 48 h in the data set “in vitro” was 208. In addition, the kinact/KI on G6PD::6PGL fused enzyme [5] came to 0.82 M⁻¹ s⁻¹. The inhibition at 200 µM at G6PD::6PGL fused enzyme [2] (2 h) is 40%. Further, the IC50 at G6PD::6PGL fused enzyme [2] (setting [14]) was determined as 256 µM; in the data set with G. lamblia trophozoites (37 °C, WB strain), 15.3 µM. For the same compound, the “Selectivity index (SI), CC50 HT29 / IC50 G. lamblia” value with HT29 cells [6] worked out at 125.
For `Cc1ncc([N+](=O)[O-])n1CCO` [Metronidazole, reference compound], in the data set on Caco-2 cells [9] (metronidazole), the “CC50 Caco-2 (literature IC50)” value is given as 19 µM. For the same compound, in the data set with G. lamblia trophozoites (37 °C, WB strain), the IC50 turned out to be 4.8 µM.
For `CC(=O)Oc1ccccc1C(=O)Nc1ncc([N+](=O)[O-])s1` [Nitazoxanide, reference compound], the inhibition at 400 µM at G6PD::6PGL fused enzyme [1] (setting [13]) is 100%. Besides, the selectivity ratio at 48 h in the data set “in vitro” amounted to 7. Also, the results for the IC50 against G6PD::6PGL fused enzyme [2] and with G. lamblia trophozoites were 78 µM and 4.2 µM, respectively. Also, the “CC50 Caco-2 (literature IC50)” value in the data set with Caco-2 cells [9] (nitazoxanide) is recorded as 26.8 µM. The “CC50 HT29 (literature IC50)” value with HT29 cells [10] is on record as more than 50 µM. The “Selectivity index (SI), CC50 HT29 / IC50 G. lamblia” value with HT29 cells [6] amounted to 12.
